Laboratory results published in PMC5708526, “Targeting secondary protein complexes in drug discovery: studying the druggability and chemical biology of the HSP70/BAG1 complex” (Chemical Communications (Cambridge, England), 2017).
Read-outs that look alike come from different tables or passages of the source.

Assays:
HSP72 [1] = molecular target: T1, HSP72 (Homo sapiens, UniProt P0DMV8); assay: FP competition assay, displacement of bisaryl-ATTO-488 11 from primary HSP72 protein; format: binding
T1 construct: made in house
Procedure: (§1) To assess what effect the secondary HSP72/BAG1 complex had on the apparent affinity of the non-nucleotide bisaryl-ATTO-488 FP-probe 11, we carried out a similar BAG1 study. […] To confirm that the binding of BAG1 to HSP72 was not mutually exclusive, we screened the nucleotides ADP and ATP in a competition assay with bisaryl-ATTO-488 11 and HSP72 at a 50% bound fraction, with and without a saturating concentration of BAG1 (700 nM) (Fig. S7, ESI ^†). […]
(§2) TRIS Tris(hydroxymethyl)aminomethane
(§3) General Information: Unless otherwise stated the aqueous assay buffer contained 50 mM TRIS base pH 7.4, 150 mM NaCl, 6 mM MgCl2, 1 mM DTT, 0.1% (wt/wt) CHAPS. The assay was conducted using 384 Plus F ProxiPlates (PerkinElmer) with a final assay volume of 10 μL. Plates were centrifuged at 1000 rpm for 1 minute prior to incubation and read using an 2103 Envision Multilable Plate Reader. Excitation and emission wavelengths used for green probes were 480 nm and 535 nm, respectively.
Fluorescence polarisation was measured in units of millipolarization (mP). All experiments were performed in triplicate, unless otherwise stated. Data were plotted and analysed using GraphPad Prism 6, graphical data represents the mean ± standard error of the mean for a single representative experiment. ATP-derived fluorescent probes (1.0 mM in aqueous) were purchased from Jena Bioscience. Human BAG-1M (10.9 μM in 20 mM TRIS base pH 7.4, 100 mM NaCl, 1 mM DTT, 1% (v/v) glycerol) was purchased from Enzo Life Sciences. […]
Compound IC50 determination: Compounds (0.2 μL at 50 x screening concentration in DMSO) were dispensed using an ECHO 550 Liquid Handler (Labcyte Inc.). To the corresponding wells was added, 5 μL of probe molecule (20 nM in assay buffer) and 5 μL of protein (two times their final concentration in assay buffer) to give a 50% bound fraction. Tracer controls (10 nM probe molecule only) and bound tracer controls (10 nM probe in the presence of appropriate protein concentration) were included on each assay plate. IC50 determination was performed using non-linear least squares curve fitting (GraphPad Prism 6, log(inhibitor) vs. response— variable slope (four parameters)). […]
(§4) Compound screen with and without BAG-1: Compounds (0.2 μL at 50 x screening concentration in DMSO) were dispensed using an ECHO 550 Liquid Handler (Labcyte Inc.). To the corresponding wells was added, 5 μL of probe molecule (20 nM in assay buffer), 2.5 μL of HSP72 (four times final concentration in assay buffer) and either 2.5 µL of BAG-1 (2.8 µM in 20 mM TRIS base pH 7.4, 100 mM NaCl, 1 mM DTT, 1% (v/v) glycerol) or 2.5 µL of BAG1 replacement buffer (20 mM TRIS base pH 7.4, 100 mM NaCl, 1 mM DTT, 1% (v/v) glycerol). The assay was performed in duplicate. Tracer controls (10 nM probe molecule only) and bound tracer controls (10 nM probe in the presence of appropriate protein concentration) were included on each assay plate.
IC50 determination was performed using non-linear least squares curve fitting (GraphPad Prism 6, log(inhibitor) vs. response— variable slope (four parameters)).
Fig. S1. Determination of assay binding window for bisaryl-ATTO-488 and ATP-ATTO-488. Polarisation values (mP) for 2-63 nM ATP-ATTO-488 (red) and bisaryl ATTO-488 (blue) in the presence (▼) and absence (▲) of 5 µM HSP72, ↔ represents the assay window at 10 nM probe concentration. All data points were tested in triplicate and are represented as the arithmetic mean ±

HSP72-NBD = molecular target: HSP72-NBD; parameters: method as in PMID 19256508; conditions: reported affinity for HSP72-NBD by surface-plasmon resonance; cited from earlier work
HSP72/BAG1 complex = molecular target: T2, HSP72/BAG1 complex (Homo sapiens, UniProt P0DMV8); assay: FP competition assay, displacement of bisaryl-ATTO-488 11 from secondary HSP72/BAG1 complex; format: binding; conditions: for change in affinity for HSP72/BAG1 complex compared to primary protein: 700 nM BAG1
T2 construct: purchased Enzo Life Sciences (BAG-1M only)
Procedure: as §1, §4
IC50 determination was performed using non-linear least squares curve fitting (GraphPad Prism 6, log(inhibitor) vs. response— variable slope (four parameters)). […]
Fig. S8. Representative competitive binding curves for ADP (A), ATP (B), compound 12 (C) and compound 13 (D) in the presence and absence of BAG1. Competition experiments in the presence of BAG1 (red) were performed using 10 nM biaryl-ATTO-488, 700 nM BAG1 and 140 nM HSP70 to give a 50% bound fraction. Competition experiments in the absence of BAG1 (blue) were performed using 10 nM biaryl-ATTO-488 and 180 nM HSP70 to give a 50% bound fraction. IC50 determination was performed using non-linear regression analysis (log(inhibitor) vs. response - Variable slope (four parameters)), all data points were tested in duplicate and are represented as the arithmetic mean ± SEM.

HSP72 [2] = molecular target: T1, HSP72; assay: FP assay binding window and Z' determination
From the text: As a result, the assay was not statistically robust, so could not be used in competition experiments (Z′ = 0.36).[11],[20],[21] We hypothesised that the high lipophilicity of 10 (clog P = 6.9) was causing the small binding window, either due to aggregation, even at very low concentrations, or its large hydrate volume.[22] Because the lipophilicity of the specific-ligand portion of the probe was fixed by the need for high affinity to the HSP70 target, we focused on changes to the solvent exposed fluorophore. ATTO-488, a green-shifted fluorophore that contains two sulfonic acid groups, was selected as an alternative to fluorescein (see ESI ^†), as this reduced the clog P of the bisaryl probe 11 to –3.9.[21] The binding window of ATTO-488 bisaryl FP-probe 11 measured at a fixed and apparently saturating concentration of HSP72 (5 μM), was now greater than 150 mP (Z′ = 0.63, Fig. 3A and Fig. S1, ESI ^†). […]
as §2, §3
Fluorescence polarisation was measured in units of millipolarization (mP). All experiments were performed in triplicate, unless otherwise stated. Data were plotted and analysed using GraphPad Prism 6, graphical data represents the mean ± standard error of the mean for a single representative experiment. ATP-derived fluorescent probes (1.0 mM in aqueous) were purchased from Jena Bioscience. Human BAG-1M (10.9 μM in 20 mM TRIS base pH 7.4, 100 mM NaCl, 1 mM DTT, 1% (v/v) glycerol) was purchased from Enzo Life Sciences.
Determination of optimal probe concentration: To each well, 5 μL of HSP72 (10 µM in assay buffer) or 5 μL assay buffer and increasing concentrations of probe (5 μL, two-fold dilution series) were added. Fluorescence polarisation values for the tracer ± protein were plotted using GraphPad prism 6. […]
Z’ determination: To each well, 5 µL of probe (20 nM in assay buffer) and either 5 µL of HSP70 (in assay buffer) or 5 µL of assay buffer were added. Fluorescent polarisation values from 96 wells were used to calculate the mean and standard deviation for each data set. Z’-factors were calculated using the equation given below (sample refers to probe in the absence of protein and control refers to probe in the presence of protein). […]

[3] = 180 nM HSP72, 10 nM probe 11, BAG1 buffer, 16 h incubation, geometric mean of at least 3 experiments, read-out: IC50 –BAG1
[4] = 700 nM BAG1, 140 nM HSP72, 10 nM probe 11, 16 h incubation, geometric mean of at least 3 experiments, read-out: IC50 +BAG1

T2 sequence (P0DMV8 whole entry): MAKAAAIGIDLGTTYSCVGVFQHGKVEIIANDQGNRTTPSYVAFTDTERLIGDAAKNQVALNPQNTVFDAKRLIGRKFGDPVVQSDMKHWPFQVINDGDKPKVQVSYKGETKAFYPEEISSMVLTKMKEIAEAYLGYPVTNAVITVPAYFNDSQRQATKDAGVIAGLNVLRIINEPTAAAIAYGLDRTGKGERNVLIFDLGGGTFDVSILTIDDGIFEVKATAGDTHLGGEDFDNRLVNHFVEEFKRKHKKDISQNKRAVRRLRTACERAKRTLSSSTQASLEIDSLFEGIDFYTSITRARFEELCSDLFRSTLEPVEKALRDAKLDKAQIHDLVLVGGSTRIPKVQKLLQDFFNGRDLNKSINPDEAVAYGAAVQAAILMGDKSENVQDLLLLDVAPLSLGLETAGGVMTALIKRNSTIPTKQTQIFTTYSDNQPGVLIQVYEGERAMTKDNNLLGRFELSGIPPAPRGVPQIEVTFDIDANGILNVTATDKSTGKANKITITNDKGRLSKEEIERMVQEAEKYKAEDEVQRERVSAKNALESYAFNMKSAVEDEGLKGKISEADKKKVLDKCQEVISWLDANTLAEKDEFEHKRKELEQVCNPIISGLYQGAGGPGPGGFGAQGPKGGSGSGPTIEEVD
T2 sequence (Q99933 72-345 partner limits assumed): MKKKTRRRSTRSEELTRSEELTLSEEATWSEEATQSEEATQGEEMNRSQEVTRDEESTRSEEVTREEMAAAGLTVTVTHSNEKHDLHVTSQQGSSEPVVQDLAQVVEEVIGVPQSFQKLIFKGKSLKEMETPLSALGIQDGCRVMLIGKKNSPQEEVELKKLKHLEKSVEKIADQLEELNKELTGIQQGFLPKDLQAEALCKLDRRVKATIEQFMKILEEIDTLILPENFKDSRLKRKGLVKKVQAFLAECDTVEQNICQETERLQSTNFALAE
T1 sequence (P0DMV8 whole entry): as the sequence (P0DMV8 whole entry) above

## Nc1ncnc2c1nc(NCc1ccc3ncccc3c1)n2[C@@H]1O[C@H](COCc2ccc(C(F)(F)F)cc2)[C@@H](O)[C@H]1O [compound 2]
HSP72 [1]; competition with FP-probe 11, HSP72, n = 3, read-out: pIC50 (converted)
  IC50: 135 nM
HSP72 [1]; competition with FP-probe 11, HSP72, read-out: IC50
  IC50: 137 nM
HSP72-NBD
  Kd: 60 nM

## Nc1ncnc2c1nc(NCc1ccc3ncccc3c1)n2[C@@H]1O[C@H](CO)[C@@H](O)[C@H]1O [compound 12]
HSP72 [1]; [3]
  IC50: 2000 nM
HSP72/BAG1 complex
  change in affinity for HSP72/BAG1 complex compared to primary protein: no significant change
HSP72/BAG1 complex; [4]
  IC50: 2000 nM

## Nc1ncnc2c1ncn2[C@@H]1O[C@H](COP(=O)(O)OP(=O)(O)O)[C@@H](O)[C@H]1O [ADP]
HSP72 [1]; [3]
  IC50: 330 nM
HSP72/BAG1 complex; [4]
  IC50: 2200 nM
HSP72/BAG1 complex; 700 nM BAG1, n = 3
  pIC50: 5.66 ± 0.04
HSP72/BAG1 complex; 700 nM BAG1 vs without BAG1
  decrease in affinity for the secondary complex compared to primary HSP72: 6.8 fold

## Nc1ncnc2c1ncn2[C@@H]1O[C@H](COP(=O)(O)OP(=O)(O)OP(=O)(O)O)[C@@H](O)[C@H]1O [ATP]
HSP72 [1]; [3]
  IC50: 650 nM
HSP72/BAG1 complex; [4]
  IC50: > 10000 nM

## NC(=O)c1cn([C@@H]2O[C@H](CO)[C@@H](O)[C@H]2O)c2ncnc(N)c12 [compound 13, sangivamycin]
HSP72 [1]
  IC50: 2400 nM
HSP72/BAG1 complex
  IC50: 1000 nM
  change in affinity for HSP72/BAG1 complex compared to primary protein: no significant change

## O=C(NCCCCCCNc1ncnc2c1nc(NCc1ccc3ncccc3c1)n2[C@@H]1O[C@H](COCc2ccc(C(F)(F)F)cc2)[C@@H](O)[C@H]1O)c1ccc(C(=O)O)c(-c2c3ccc(=O)cc-3oc3cc(O)ccc23)c1 [compound 10]
HSP72 [2]; FP assay with HSP72
  Z': 0.36
HSP72 [2]; presence vs absence of 5 μM HSP72
  assay (binding) window: ~30 mP
